Values after ≈ are worked out from the molar mass of the structure shown. Blank lines part the entries; values can stand above or below the molecule they belong to.
Columns and labels:
SW620 cells = experiment: MTT assay, SW620 cells; type: cell-based, human; details: SW620 human metastatic colon cancer, MTT, 24 h, mean SD
MDA-MB-231 cells = experiment: MTT assay, MDA-MB-231 cells; type: cell-based, human; details: MDA-MB-231 human breast adenocarcinoma, MTT, 24 h, mean SD
Protocol: (§1) Colon cancer (SW480), breast adenocarcinoma (MDA-MB-231), lung carcinoma (A-549), prostate cancer (PC3), and immortal keratinocyte (HaCaT) cell lines of human origin were acquired from the American Type Culture Collection (ATCC). The recommended culture media and protocols provided by ATCC were as follows: SW480 were cultured in Minimum Essential Medium (MEM), MDA-MB-231, A-549, and HaCaT cells were cultured in Dulbecco’s Modified Eagle Medium (DMEM), while PC3 was cultured in Roswell Park Memorial Institute Medium (RPMI). The culture media were supplemented with 10% fetal bovine serum (FBS), penicillin (100 U/mL), and streptomycin (100 μg/mL). Cells were maintained in a humidified incubator at 37 °C with 5% CO2. Passaging was carried out upon reaching 80–90% confluence using 0.25% trypsin (Gibco Life Technologies, New York, NY, USA) treatment prior to experimentation.
(§2) Cell viability was assessed utilizing the MTT assay, which relies on the conversion of 3-(4,5-dimethylthiazol-2-yl)-2,5-diphenyltetrazolium bromide salt (MTT) to formazan crystals by mitochondrial dehydrogenases in viable cells. Initially, cells were plated in 96-well plates at a density of 1 × 10^4 cells per well and allowed to attach for 24 h at 37 °C in a CO2 incubator. Subsequently, the culture medium was replaced with fresh medium containing various concentrations of the test compounds (ranging from 1 to 100 μM), and cells were further cultured for 24 h at 37 °C in a CO2 incubator. Control wells were left untreated for comparison. After the incubation period, MTT solution (0.5 mg/mL in serum-free medium) was added to each well, followed by a 4-h incubation at 37 °C in a CO2 incubator. The medium was then aspirated, and the formazan crystals were dissolved by adding a mixture of isopropanol and DMSO (1:1). The absorbance of the resulting solution was measured at 570 nm using a UVM 340 reader (ASYS Hitech GmbH, Seekirchen am Wallersee, Austria). IC50 values were determined using GraphPad software (GraphPad Prism 8 Software).

A-549 cells = experiment: MTT assay, A-549 cells; type: cell-based, human; details: A-549 human lung carcinoma, MTT, 24 h, mean SD
Protocol: as §1, §2

HaCaT cells = experiment: MTT assay, HaCaT normal cells; type: cell-based; details: HaCaT human immortal keratinocyte (normal cells), 24 h, mean SD
Protocol: as §1, §2

[1] = test system: Candida glabrata ATCC 15126; experiment: Broth microdilution, C. glabrata ATCC 15126; type: cell-based
How it was run: (§3)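 EUCAST broth microdilution: inoculum 0.5 McFarland, 10-fold diluted; Mueller-Hinton broth (bacteria) or MH + 2% glucose (yeast); twofold dilutions from 1000 µg/mL; 18 ± 2 h at 35 ± 2 °C, A570 read for MIC. MBC/MFC from subculture on MHA or MHA + 2% glc (99.9% kill).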

[2] = test system: Staphylococcus aureus ATCC 6538; experiment: Broth microdilution, S. aureus ATCC 6538; type: cell-based
How it was run: as §3

[3] = test system: Candida tropicalis ATCC 1369; experiment: Broth microdilution, C. tropicalis ATCC 1369; type: cell-based
How it was run: as §3

[4] = test system: Candida glabrata ATCC 90030; experiment: Broth microdilution, C. glabrata ATCC 90030; type: cell-based
How it was run: as §3

[5] = test system: Candida lusitaniae ATCC 3449; experiment: Broth microdilution, C. lusitaniae ATCC 3449; type: cell-based
How it was run: as §3

[6] = test system: Staphylococcus epidermidis ATCC 12228; experiment: Broth microdilution, S. epidermidis ATCC 12228; type: cell-based
How it was run: as §3

[7] = test system: Micrococcus luteus ATCC 10240; experiment: Broth microdilution, M. luteus ATCC 10240; type: cell-based
How it was run: as §3

[8] = test system: Staphylococcus aureus ATCC 25923; experiment: Broth microdilution, S. aureus ATCC 25923; type: cell-based
How it was run: as §3

[9] = test system: Candida krusei ATCC 14243; experiment: Broth microdilution, C. krusei ATCC 14243; type: cell-based
How it was run: as §3

[10] = test system: Candida parapsilosis ATCC 22019; experiment: Broth microdilution, C. parapsilosis ATCC 22019; type: cell-based
How it was run: as §3

[11] = test system: Staphylococcus aureus ATCC 43300 methicillin-resistant MRSA; experiment: Broth microdilution, S. aureus ATCC 43300 MRSA; type: cell-based
How it was run: as §3

Candida auris CDC B11903 = experiment: Broth microdilution, C. auris CDC B11903; type: cell-based
How it was run: as §3

Candida spp. = experiment: Broth microdilution, Candida spp.; type: cell-based; details: range over both strains and the listed compounds
Protocol: The antibacterial activity of the obtained thiosemicarbazides and hydrazide–hydrazones was determined by evaluating their ability to inhibit microbial growth in vitro using the broth microdilution method, according to the guidelines of the European Committee on Antimicrobial Susceptibility Testing (EUCAST). The method involved the preparation of microbial suspensions with a standardized density of 0.5 on the McFarland scale (equivalent to 1.5 × 10^8 colony-forming units/mL for bacteria and […] for fungi). A solution of the test substances was then prepared (initial concentration 1000 µg/mL, diluted in sterile Mueller-Hinton broth for bacteria or Mueller-Hinton with 2% glucose for fungi). The test was carried out in 96-well polystyrene flat-bottom plates (Medlab, Poland) with 100 µL of appropriate sterile microbiological medium in each well. The first wells were filled with 200 µL of the test substance, diluted to the initial concentration, and then double-decreasing dilutions were made under aseptic conditions using an automatic pipette. The final step was the addition of a 10-fold diluted microbial suspension of 2 µL. At the same time, the following controls were included: (a) medium control (100 µL of sterile medium without microorganisms added), (b) microbial viability control, (c) test substance control (dilutions without added micro-organisms), (d) positive control of the drug used in the clinic. The plates thus prepared were incubated for 18 ± 2 h at 35 ± 2 °C under conditions optimal for the growth of the test microorganisms. After incubation, the spectrophotometric absorbance at 570 nm in each well of the plate was read. The aim of this part of the study was to determine two parameters: the minimum inhibitory concentration (MIC) and the minimum bactericidal or fungicidal concentration (MBC/MFC) of the test compound. […] The MBC value was determined by adding 5 µL of the contents of each well of the plate to solid sterile MHA or MHA + 2%glc medium for bacteria and fungi, respectively. The area on the plate where 99.9% inhibition of microbial growth was observed indicated the lethal concentration. In addition, the quotient MBC(MFC)/MIC could be determined to assess the nature of the activity of the test substance. If MBC(MFC)/MIC was <4, the test substance was bactericidal/fungicidal, whereas if MBC(MFC)/MIC was ≥4, it was bacteriostatic/fungistatic. Amoxicillin (Glentham Life Sciences, USA) and nystatin (Glentham Life Sciences, USA) were used as the controls for this assay.
The test was performed either on bacteria, comprising: Gram-positive (Staphylococcus aureus ATCC 25923, Staphylococcus aureus ATCC 6538, Staphylococcus aureus ATCC 43300 methicillin-resistant MRSA, Staphylococcus epidermidis ATCC 12228, Micrococcus luteus ATCC 10240, Bacillus subtilis ATCC 6633, Bacillus cereus ATCC 10876) and Gram-negative (Escherichia coli ATCC 25922, Pseudomonas aeruginosa ATCC 27853, Proteus mirabilis ATCC 12453, Klebsiella pneumoniae ATCC 13883) or yeast (Candida parapsilosis ATCC 22019, Candida glabrata ATCC 90030, Candida krusei ATCC 14243, Candida glabrata ATCC 15126, Candida tropicalis ATCC 1369, Candida auris CDC B11903, Candida lusitaniae ATCC 3449) reference strains from the American Type Culture Collection (ATCC) or the Centers for Disease Control and Prevention (CDC).

[12] = test system: Bacillus cereus ATCC 10876; experiment: Broth microdilution, B. cereus ATCC 10876; type: cell-based
How it was run: as §3

[13] = test system: Bacillus subtilis ATCC 6633; experiment: Broth microdilution, B. subtilis ATCC 6633; type: cell-based; details: for MBC/MIC Ratio: <4 bactericidal, ≥4 bacteriostatic
How it was run: as §3

Gram-positive bacteria = experiment: Broth microdilution, Gram-positive bacteria; type: cell-based; details: strains as named in the sentence
Protocol: The antibacterial activity of the obtained thiosemicarbazides and hydrazide–hydrazones was determined by evaluating their ability to inhibit microbial growth in vitro using the broth microdilution method, according to the guidelines of the European Committee on Antimicrobial Susceptibility Testing (EUCAST). The method involved the preparation of microbial suspensions with a standardized density of 0.5 on the McFarland scale (equivalent to 1.5 × 10^8 colony-forming units/mL for bacteria and […] for fungi). A solution of the test substances was then prepared (initial concentration 1000 µg/mL, diluted in sterile Mueller-Hinton broth for bacteria or Mueller-Hinton with 2% glucose for fungi). The test was carried out in 96-well polystyrene flat-bottom plates (Medlab, Poland) with 100 µL of appropriate sterile microbiological medium in each well. […] After incubation, the spectrophotometric absorbance at 570 nm in each well of the plate was read. […] The MBC value was determined by adding 5 µL of the contents of each well of the plate to solid sterile MHA or MHA + 2%glc medium for bacteria and fungi, respectively. […] In addition, the quotient MBC(MFC)/MIC could be determined to assess the nature of the activity of the test substance. […]

[14] = Staphylococcus epidermidis, ATCC12228
[15] = Staphylococcus aureus, ATCC25923

Structure (SMILES): N.N.[Cl][Pt][Cl] [Cisplatin, cisplatin]
IC50 (SW620 cells): 6.7 ± 1.1 µM | IC50 (MDA-MB-231 cells): 7.8 ± 0.98 µM | IC50 (A-549 cells): 3.2 ± 1.24 µM | IC50 (HaCaT cells): 6.3 ± 0.7 µM

MIC ([1]; Cg 15126): >1000 µg/mL | MIC ([2]; Sa 6538): >1000 µg/mL | MIC ([3]; Ct 1369): >1000 µg/mL | MIC ([4]; Cg 90030): >1000 µg/mL | MIC ([5]; Cl 3449): >1000 µg/mL | MIC ([6]; Se 12228): 1000 µg/mL (≈ 2580 µM) | MIC ([7]; Ml 10240): 500 µg/mL (≈ 1290 µM) | MIC ([8]; Sa 25923): 500 µg/mL (≈ 1290 µM) | MIC ([9]; Ck 14243): >1000 µg/mL | MIC ([10]; Cp 22019): 500 µg/mL (≈ 1290 µM) | MIC ([11]; Sa 43300 MRSA): >1000 µg/mL | MIC (Candida auris CDC B11903; Ca B11903): >1000 µg/mL | MIC (range, C. parapsilosis ATCC 22019 and C. tropicalis ATCC 1369) (Candida spp.): 62.5 to 1000 µg/mL | MIC ([12]; Bc 10876): 1000 µg/mL (≈ 2580 µM) | MIC ([13]; Bs 6633): 500 µg/mL (≈ 1290 µM)
Structure (SMILES): Cn1cc([N+](=O)[O-])nc1C(=O)NNC(=S)Nc1cccc(C(F)(F)F)c1 [Compound 13]
MBC ([6]; Se 12228): >1000 µg/mL | MBC ([7]; Ml 10240): >1000 µg/mL | MBC ([8]; Sa 25923): >1000 µg/mL | MFC ([10]; Cp 22019): 1000 µg/mL (≈ 2580 µM) | MFC/MIC Ratio ([10]; Cp 22019, <4 fungicidal, ≥4 fungistatic): 2 | MBC (range, C. parapsilosis ATCC 22019 and C. tropicalis ATCC 1369) (Candida spp.): 500 to 1000 µg/mL | MBC ([12]; Bc 10876): >1000 µg/mL | MBC ([13]; Bs 6633): 500 µg/mL (≈ 1290 µM) | MBC/MIC Ratio ([13]; Bs 6633): 1

Structure (SMILES): Cn1cc([N+](=O)[O-])nc1C(=O)NNC(=S)Nc1ccc([N+](=O)[O-])cc1 [Compound 18, 1-[(1-methyl-4-nitroimidazol-2-yl)carbonyl]-4-(4-nitrophenyl)-thiosemicarbazide]
MIC ([1]; Nakaseomyces glabratus, ATCC15126): > 1000 µg/mL | MIC ([2]; Staphylococcus aureus, ATCC6538): > 1000 µg/mL | MFC ([3]; Candida tropicalis, ATCC1369): > 1000 µg/mL | MIC ([3]; Candida tropicalis, ATCC1369): 500 µg/mL (≈ 1370 µM) | MIC ([4]; Nakaseomyces glabratus, ATCC90030): > 1000 µg/mL | MIC ([5]; Clavispora lusitaniae, ATCC3449): > 1000 µg/mL | MBC [6, 14]: > 1000 µg/mL | MIC [6, 14]: 1000 µg/mL (≈ 2740 µM) | MBC ([7]; Micrococcus luteus, ATCC10240): 1000 µg/mL (≈ 2740 µM) | MIC ([7]; Micrococcus luteus, ATCC10240): 500 µg/mL (≈ 1370 µM) | MBC/MIC Ratio ([7]; Ml 10240, <4 bactericidal, ≥4 bacteriostatic): 2 | MBC [8, 15]: > 1000 µg/mL | MIC [8, 15]: 500 µg/mL (≈ 1370 µM) | MIC ([9]; Pichia kudriavzevii, ATCC14243): > 1000 µg/mL | MIC ([10]; Lodderomyces parapsilosis, ATCC22019): > 1000 µg/mL | MIC ([11]; Staphylococcus aureus): > 1000 µg/mL | MIC (Candida auris CDC B11903; Candidozyma auris, CDCB11903): > 1000 µg/mL | MBC ([12]; Bacillus cereus, ATCC10876): 1000 µg/mL (≈ 2740 µM) | MIC ([12]; Bacillus cereus, ATCC10876): 1000 µg/mL (≈ 2740 µM) | MBC/MIC Ratio ([12]; Bc 10876, <4 bactericidal, ≥4 bacteriostatic): 1 | MIC (range or value for several Gram-positive strains) (Gram-positive bacteria): 500 to 1000 µg/mL | MBC ([13]; Bacillus subtilis, ATCC6633): 1000 µg/mL (≈ 2740 µM) | MIC ([13]; Bacillus subtilis, ATCC6633): 1000 µg/mL (≈ 2740 µM) | MBC/MIC Ratio ([13]; Bs 6633): 1

From PMC11243693, “Synthesis and Biological Evaluation of New Compounds with Nitroimidazole Moiety” (Molecules, 2024)
